Assays:
[1] = system: P 815 (mastocytoma); experiment: MTT test, mice tumor line P 815; format: cell-based; conditions: P-815 line
Experimental: (§1) Cytostatic activity of compounds of the present invention has been tested in vitro on tumor lines. The MTT test was chosen for screening the effectivity of the respective compounds. The test is based on reaction of a tetrazolium salt with respirating mitochondria of living cells. The resulted insoluble formazan is solubilized and its amount is determined on a microplate reader. This method is being used as a standard one for evaluation of cytostatic effect of pharmaceutically active compounds (Tim Mosmann, Rapid colorimetric assay for cellular growth and survival, Application to proliferation and cytotoxicity assays, Journal of Immunological Methods, 65 (1983), 55-63). Inhibition constant (IC50) represents such a concentration of a substance which causes 50% supression of growth of a cell culture. This constant has been determined from a graph of dependence of MTT value (mitochondrial activity of cells) on the concentration of tested substance. A GraphPad Prism programme was used for determination of the constant from the measured values, whereby Boltzman sigmoid was used for constructing a curve from single experimental points. Chosen cell lines are standard lines used for routine screening of cytostatic effect of pharmacologically active compounds.
(§2) Within this example, lines P 815 (mastocytoma) and L 1210 (lymphocyte leucaernia line) were tested.

[2] = system: lymfoblastic leucaemia line CEMt; experiment: MTT test, human tumor line CEMt; format: cell-based; conditions: read-out: Inhibition constant IC50
Experimental: (§3) The MTT test was chosen for screening the effectivity of the respective compounds. The test is based on reaction of a tetrazolium salt with respirating mitochondria of living cells. The resulted insoluble formazan is solubilized and its amount is determined on a microplate reader. […] Inhibition constant (IC50) represents such a concentration of a substance which causes 50% supression of growth of a cell culture. This constant has been determined from a graph of dependence of MTT value (mitochondrial activity of cells) on the concentration of tested substance. A GraphPad Prism programme was used for determination of the constant from the measured values, whereby Boltzman sigmoid was used for constructing a curve from single experimental points.
Comparation experiments were performed on lymfoblastic leucaemia line CEMt. The MTT test was used for evaluation of cytotoxic effect.
Vitality of cells was determined by a standard spectrophotometric MTT test based on reduction of 3-(4,5-dimethylthiazol-2-yl)-2,5-diphenyltetrazolium bromide by vital cells under formation of a formazane.

[3] = system: L 1210 (lymphocyte leucaernia line); experiment: MTT test, mice tumor line L 1210; format: cell-based; conditions: L-1210 line
Experimental: as §1, §2

[4] = system: Ocular melanoma VUP; experiment: Cytotoxicity on ocular melanoma VUP; format: cell-based, human
Experimental: as §3

[5] = system: solid mammal adenocarcinoma MC 2111; experiment: Antitumor activity in vivo, single i.v. dose, survival; parameters: species or system Mice female DBA/1
Experimental: Mice female DBA/1 of body mass 22.9-25.8 g were used in this experiment. Tumors were developed by s.c. inoculation of 0.2 ml of a tumor homogenate diluted in 1:1 volume ratio with an isotonic glucose solution. Tested compounds were applied in a form of an isotonic water solution prepared immediately before application by dissolution of corresponding lyophilised product in water for injections and further by dilution with isotonic sodium chloride solution ad hoc according to the need, in volumes of 0.1-0.4 ml per 20 g of body mass of an animal, as apparent from the following table.

[6] = system: lines P 815 (mastocytoma) and L 1210 (lymphocyte leucaernia line); experiment: MTT test, mice tumor lines (line not stated for the carboplatin value); format: cell-based
Experimental: as §1, §2

Row | Compound | IC50 [1] [µM] | IC50 [2] [µM] | IC50 [3] [µM] | IC50 [4] [µM] | sensibility in comparison with Carboplatin ([4]; IC50 comparison) | Survivors (% of control) ([5]; 12 mg/kg single i.v. dose) | Optimum dosage ([5]; animals used in the tests) [mg/kg] | activity relative to LA-9 ([6]; IC50 comparison) | IC50 ([6]; line not specified, both in a free form or as a complex with cyclodextrin) [µM]
1 | cis-(1-adamantylamine) amminedichloroplatinum (II) [LA-9] | 1.1 | 0.36 | 1.5 | 9 | approximately ten times higher sensibility | 410 % of control | 13 to 16 |  | 
2 | N.N.O=C([O-])C1(C(=O)[O-])CCC1.[Pt+2] [Carboplatin, cis-diammine-/1,1-cyclobutanedicarboxylato/platinum(II) complex] |  | 30.4 |  | 95 |  |  |  | approximately hundred times less active | 105
3 | N.N.[Cl][Pt][Cl] [Cisplatin, cis-diammine-dichloroplatinum(II) complex] |  | 1.9 |  |  |  |  |  |  | 
4 | O=C1[O][Pt]2([NH][C@@H]3CCCC[C@H]3[NH]2)[O]C1=O [Oxaliplatin] |  | 4.8 |  |  |  |  |  |  | 

From patent publication US6350737B1, “Platinum complex, its preparation and therapeutic application” (Pliva-Lachema, A.S., priority 1998, dated 2002)
